# From US7601489B2, “Manganese ion regulation of reverse transcriptase activity and methods of modulating same” (The Johns Hopkins University, priority 2002, dated 2009)
# Where a chain is given by its changes, count along the chain named.
# Key:
# wild-type Ty1 RT = target: T1, wild-type Ty1 RT (Saccharomyces cerevisiae, UniProt P47098); test: biochemical
# T1 sequence (P47098 1218-1755 limits assumed): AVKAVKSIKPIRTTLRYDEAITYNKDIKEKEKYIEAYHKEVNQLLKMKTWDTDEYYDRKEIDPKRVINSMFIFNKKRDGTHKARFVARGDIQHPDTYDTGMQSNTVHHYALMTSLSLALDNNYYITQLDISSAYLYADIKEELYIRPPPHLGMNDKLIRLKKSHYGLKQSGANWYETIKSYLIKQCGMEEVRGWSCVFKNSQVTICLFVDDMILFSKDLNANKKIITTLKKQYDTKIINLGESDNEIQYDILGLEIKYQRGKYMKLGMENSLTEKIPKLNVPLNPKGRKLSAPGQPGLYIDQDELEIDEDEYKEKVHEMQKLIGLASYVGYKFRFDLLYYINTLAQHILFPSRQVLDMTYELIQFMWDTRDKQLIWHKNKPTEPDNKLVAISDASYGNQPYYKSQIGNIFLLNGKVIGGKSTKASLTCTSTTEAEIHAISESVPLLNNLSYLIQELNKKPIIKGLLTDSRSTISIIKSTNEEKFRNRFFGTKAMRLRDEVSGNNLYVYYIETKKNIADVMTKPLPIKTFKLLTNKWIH
# Procedure: (§1) VLP isolation and analysis. Yeast cells harboring pGTy1-H3-mhis3AI were grown in 2% galactose at 22° C. for approximately 24 hr. Cell pellets from these 0.5 L cultures were resuspended in 5 ml buffer B (Eichinger and Boeke, Cell 54: 955-966, 1988, which is incorporated herein by reference) and VLPs were isolated. […] Reactions were set up on ice, carried out for 1 hr at 22° C. and kept on ice while being spotted onto DE81 anion-exchange paper (Whatman International Ltd.; Maidstone, England).
# (§2) Protein purification and analysis. Recombinant Ty1 RT (Wilhelm et al., supra, 2000) containing a cleavable N-terminal GST-tag was expressed in E. coli and purified first by affinity chromatography and then by ion exchange chromatography, as described for HIV-1 RT (Le Grice et al., Meth. Enzymol. 262: 130-44, 1995, which is incorporated herein by reference). The GST-tagged protein was eluted from a Glutathione Sepharose 4B™ gel (Amersham) gravity column with buffer (50 mM HEPES-KOH, pH 7.8, 200 mM KCl, 10% glycerol and 2 mM DTT) containing 30 mM reduced glutathione. 50 mM HEPES-KOH, pH 7.0 with 10% glycerol was added to the protein solution to lower the pH to 7.1 and the KCl concentration to 25 mM. The recombinant Ty1 RT was further purified over a Resource S™ (Amersham) cation-exchange column using a linear KCl gradient (25-500 mM). […] Purified hetero-dimeric HIV-1 RT (Le Grice et al., supra, 1995) was acquired through the AIDS Research and Reference Reagent Program, Division of AIDS, NIAID, NIH. Purified AMV RT was purchased from Roche Molecular Biochemicals (Mannheim, Germany). The RT assays performed on the purified RTs were carried out as described above, except in the presence of 20 mM KCl, and HIV-1 RT assays were incubated at 37° C. Each reaction contained 45 ng of purified recombinant Ty1 RT or 30 ng of heterodimeric HIV-1 RT.
# D211N Ty1 RT = target: T2, D211N Ty1 RT (Saccharomyces cerevisiae, UniProt P47098, D1428N); test: RT assay on purified RT, metal ion competition and metal activation kinetics
# T2 sequence (P47098 1218-1755 D1428N): T1 sequence (P47098 1218-1755 limits assumed) with D211N
# Description: Plasmid constructions. Plasmid c24-2I was generated by ligating the Stu I -Avr II fragment (4.3 kb) of c24-2 with the Sma I—Xba I fragment (6.0 kb) of pRS415 (LEU2 CEN6; Sikorski and Hieter, Genetics 122: 19-27, 1989, which is incorporated herein by reference). To simplify the cloning of the single amino-acid-substitution mutations into the PMR1 gene, c24-2L was constructed by removing the Xho I—Nde I fragment (1.2 kb) from c24-2I, filling in the ends with Klenow (New England Biolabs; Beverly Mass.), and ligating the blunt ends to recircularize the plasmid. Alanine substitution mutations, D778A and Q783A, were generated in the native PMR1 gene by replacing the Pst I—Sal I fragment (1.1 kb) of c24-2L with the corresponding fragment harboring the respective Pmr1p substitution mutation in the YEpHR1 backbone (Wei et al., J. Biol. Chem. 275: 23927-23932, 2000, which is incorporated herein by reference). The D53A substitution mutation was introduced into c24-2L by swapping in the Xba I fragment (0.3 kb) containing the Pmr1p substitution mutation in the YEpHR1 backbone (Wei et al., supra, 1999). Recombinant Ty1 RT (Wilhelm et al., supra, 2000) was PCR amplified and subcloned into the BamH I and Xho I sites of pGEX-4T-3 (Amersham Pharmacia Biotech; Piscataway N.J.). The D211N substitution mutation was generated by replacing the Sph I-Hind III fragment (0.4 kb) of the wild-type Ty1 RT expression construct with that of pJEF724 DD-DN (Uzun and Gabriel, supra, 2001).
# as §1, §2
# Ty1 RT [1] = target: T3, Ty1 RT (Saccharomyces cerevisiae, UniProt P47098); details: for Proposed activity of Ty1 RT, same metal at A site and B site: same ion at A site and B site
# T3 sequence (P47098 1218-1755 limits assumed): T1 sequence (P47098 1218-1755 limits assumed)
# Ty1 VLPs = Ty1 VLPs (Saccharomyces cerevisiae, UniProt P47098)
# Procedure: as §1
# AMV RT = details: purified AMV RT; excess Mg^2+
# Procedure: as §1, §2
# M-MuLV RT = details: purified M-MuLV RT, with or without its associated RNase H
# Procedure: as §1, §2
# hetero-dimeric HIV-1 RT = hetero-dimeric HIV-1 RT (Human immunodeficiency virus type 1 group M subtype B, UniProt P04585); details: purified hetero-dimeric HIV-1 RT; poly(rC) template; excess Mg^2+; 37° C.
# Procedure: as §1, §2
# Ty1 RT [2] = target: Ty1 RT (Saccharomyces cerevisiae, UniProt P47098, D1428N); details: Mn^2+ at A site, Mg^2+ at B site; unlikely for Wt.
# [3] = Wt. Ty1 RT, fit to Hill equation
# [4] = D211N Ty1 RT, fit to Hill equation
# Ty1 RT (Saccharomyces cerevisiae, UniProt P47098, D1428N), sequence (P47098 1103-1755 D1428N): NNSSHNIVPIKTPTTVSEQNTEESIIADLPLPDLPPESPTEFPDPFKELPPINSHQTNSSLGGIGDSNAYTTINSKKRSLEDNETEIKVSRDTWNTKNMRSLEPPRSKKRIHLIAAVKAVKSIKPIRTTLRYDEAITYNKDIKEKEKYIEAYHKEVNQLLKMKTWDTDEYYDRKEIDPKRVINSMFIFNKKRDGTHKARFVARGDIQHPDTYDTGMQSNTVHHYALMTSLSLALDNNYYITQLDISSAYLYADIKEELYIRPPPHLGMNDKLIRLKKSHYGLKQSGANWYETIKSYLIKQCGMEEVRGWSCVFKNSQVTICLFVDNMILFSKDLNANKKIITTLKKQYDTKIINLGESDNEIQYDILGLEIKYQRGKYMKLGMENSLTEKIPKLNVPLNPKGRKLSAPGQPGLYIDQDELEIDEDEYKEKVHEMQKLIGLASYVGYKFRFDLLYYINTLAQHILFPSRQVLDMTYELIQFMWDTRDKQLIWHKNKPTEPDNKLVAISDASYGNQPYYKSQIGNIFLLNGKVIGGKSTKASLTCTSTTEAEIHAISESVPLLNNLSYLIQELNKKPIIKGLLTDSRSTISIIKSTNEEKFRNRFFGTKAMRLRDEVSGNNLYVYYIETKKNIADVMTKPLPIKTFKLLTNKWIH
structure (smiles),measurement,setting,value
"[Ca+2].[Cl-].[Cl-] [Ca^2+, CaCl2, reference compound]",Inhibition of Ty1 RT in control competition experiment,"wild-type Ty1 RT; Ca^2+ substituted for Mn^2+, in presence of Mg^2+ (FIG. 4C)",no significant inhibition
"[Mg+2] [Mg^2+, MgCl2]",Kd,wild-type Ty1 RT,0.13 ± 0.04 mM
same,"Proposed divalent cation binding affinity, A site",wild-type Ty1 RT; Wt. Ty1 RT,very high affinity for Mg^2+
same,"Proposed divalent cation binding affinity, B site",wild-type Ty1 RT; Wt. Ty1 RT,low affinity for Mg^2+
same,n (Hill coefficient) of metal activation,wild-type Ty1 RT; [3],1.7 ± 0.1
same,Kd,D211N Ty1 RT,6.3 ± 0.2 mM
same,"Proposed divalent cation binding affinity, A site",D211N Ty1 RT; D211N Ty1 RT,very low affinity for Mg^2+
same,"Proposed divalent cation binding affinity, B site",D211N Ty1 RT; D211N Ty1 RT,low affinity for Mg^2+
same,n (Hill coefficient) of metal activation,D211N Ty1 RT; [4],2.1 ± 0.1
same,"Proposed activity of Ty1 RT, same metal at A site and B site",Ty1 RT [1],high
"[Mn+2] [Mn^2+, MnCl2]",Ratio of Mn^2+ to Mg^2+ that reduced RT activity by 50%,"Ty1 VLPs; RNA-directed DNA polymerization, poly(rC) template, excess Mg^2+",8×10^−3
same,Mn^2+-dependent inhibition with DNA template,Ty1 VLPs; poly(dC) substituted for poly(rC),Mn^2+-dependent inhibition was also observed
same,Mn^2+-dependent inhibition of RT activity,AMV RT,Even more dramatic Mn^2+-dependent inhibition
same,Effect of Mn^2+ on RT activity,M-MuLV RT,Increased activity at low Mn^2+ concentrations
same,Ratio of Mn^2+ to Mg^2+ that reduced RT activity by 50%,hetero-dimeric HIV-1 RT,7×10^−4
same,Kd,wild-type Ty1 RT,19.9 ± 1.6 mM
same,"Proposed divalent cation binding affinity, A site",wild-type Ty1 RT; Wt. Ty1 RT,very low affinity for Mn^2+
same,"Proposed divalent cation binding affinity, B site",wild-type Ty1 RT; Wt. Ty1 RT,high affinity for Mn^2+
same,kcat of metal activation,wild-type Ty1 RT; [3],0.000156 ± 1.9e-05 s⁻¹
same,n (Hill coefficient) of metal activation,wild-type Ty1 RT; [3],2.3 ± 0.2
same,Mn^2+-dependent inhibition with DNA template,"wild-type Ty1 RT; purified recombinant Ty1 RT, poly(dC) substituted for poly(rC)",Mn^2+-dependent inhibition was also observed
same,Ratio of Mn^2+ to Mg^2+ that reduced RT activity by 50%,"wild-type Ty1 RT; purified recombinant Ty1 RT, poly(rC) template, excess Mg^2+",1×10^−3
same,Kd,D211N Ty1 RT,0.02 ± 0.003 mM
same,Ratio (Mn^2+ concentration to Mg^2+ concentration) at which the increase in activity peaks,"D211N Ty1 RT; D211N RT, Mn^2+ added in presence of Mg^2+",0.02
same,"Proposed divalent cation binding affinity, A site",D211N Ty1 RT; D211N Ty1 RT,very high affinity for Mn^2+
same,"Proposed divalent cation binding affinity, B site",D211N Ty1 RT; D211N Ty1 RT,high affinity for Mn^2+
same,kcat of metal activation,D211N Ty1 RT; [4],0.000158 ± 8.3e-06 s⁻¹
same,n (Hill coefficient) of metal activation,D211N Ty1 RT; [4],2.1 ± 0.1
same,Inhibition by increasing concentrations of Mn2+,"D211N Ty1 RT; D211N Ty1 RT, printed: in the presence of excess Mn^2+ (FIG. 4D)",not inhibited
same,"Proposed activity of Ty1 RT, Mg^2+ at A site and Mn^2+ at B site","Ty1 RT [1]; Mn^2+ at B site, Mg^2+ at A site, unlikely for D211N",low
same,"Proposed activity of Ty1 RT, same metal at A site and B site",Ty1 RT [1],low
same,"Proposed activity of Ty1 RT, Mn^2+ at A site and Mg^2+ at B site",Ty1 RT [2],high
